Results from patent US20150094321A1, “COMBINATION” (GlaxoSmithKline LLC, priority 2009, published 2015).

Assays:
UACC893 = experiment: Cell growth inhibition assay; assay type: cell-based; conditions: Homo sapiens, UACC-893, UACC893, breast, HER2+, PIK3CA H1047R; single agent; read-out: IC50 Single Agent (mean +/- std)
Method: (§1) Human breast tumor lines. BT-474, HCC1419, HCC1937, HCC1954, HCC202, KPL-1, MDA-MB-157, MDA-MB-175-VII, MDA-MB-361, MDA-MB-453, SK-BR-3, SUM225PE, UACC893, and ZR-75-1; lung tumor line, CALU-3; and melanoma line, CHL-1, were from ATCC. Human breast tumor line JIMT-1 was from European Collection of Cell Cultures (UK). Human breast tumor lines SUM149PT, SUM190PT and SUM52PE were from Asterand. These lines were cultured in RPMI 1640 medium containing 10% fetal bovine serum (FBS). A head and neck tumor line, LICR LON HN5 (HN5), a gift from the Institute of Cancer Research, Surrey, U.K, was cultured in Dulbecco's modified Eagle medium (DMEM) containing 5% FBS; KPL-4 breast tumor cell line was kindly provided by Dr Junichi Kurebayashi (Kawasaki Medical School, Okayama, Japan) and cultured in DMEM containing 5% FBS. JIMT-1 is a line derived from a patient clinically resistant to trastuzumab (Herceptin®). BT-474-J4 is a single cell clone derived from a pool of BT-474 cells that were selected to grow in lapatinib to a concentration of 3 μM.
(§2) All cells were cultured for a minimum of 72 hours prior to cell plating. Cells were assayed in a 96-well tissue culture plate (NUNC 136102) of RPMI medium containing 10% FBS for all cells at 2,000 cells per well except KPL-4 and HN5 which were plated in DMEM containing 5% FBS at 500 cells per well. Approximately 24 hours after plating, cells were exposed to ten, two-fold or three-fold serial dilutions of compound or the combination of the two agents at a constant molar to molar ratio of 1:1 Compound A to Compound B in RPMI media containing 10% FBS or DMEM containing 5% FBS. Cells were incubated in the presence of compounds for 3 days. ATP levels were determined by adding Cell Titer Glo® (Promega) according to the manufacturer's protocol. Briefly, Cell Titer Glo® was added each plate, incubated for 20 minutes then luminescent signal was read on the SpectraMax L plate reader with a 0.5 sec integration time.
(§3) Inhibition of cell growth was estimated after treatment with compound or combination of compounds for three days and comparing the signal to cells treated with vehicle (DMSO). Cell growth was calculated relative to vehicle (DMSO) treated control wells. Concentration of compound that inhibits 50% of control cell growth (IC50) was interpolated using nonlinear regression with the equation, y=(A+(B−A)/(1+(C/x)̂D))), where A is the minimum response (ymin), B is the maximum response (ymax), C is the inflection point of the curve (EC50) and D is the Hill coefficient. […]

SUM52PE = experiment: Cell growth inhibition assay; assay type: cell-based; conditions: Homo sapiens, breast, FGFR2+, WT, single agent, read-out: IC50 Single Agent (mean +/- std)
Method: as §1, §2, §3

MDA-MB-453 = experiment: Cell growth inhibition assay; assay type: cell-based; conditions: Homo sapiens, MDA-MB-453, MDA-MB-453, breast, HER2+, PIK3CA H1047R; single agent; read-out: IC50 Single Agent (mean +/- std)
Method: as §1, §2, §3

SUM190PT = experiment: Cell growth inhibition assay; assay type: cell-based; conditions: Homo sapiens, breast, HER2+, PIK3CA H1047R, single agent, read-out: IC50 Single Agent (mean +/- std)
Method: as §1, §2, §3

KPL-4 = experiment: Cell growth inhibition assay; assay type: cell-based; conditions: Homo sapiens, KPL4, KPL-4, breast, HER2+, PIK3CA H1047R; single agent; read-out: IC50 Single Agent (mean +/- std)
Method: as §1, §2, §3

MDA-MB-361 = experiment: Cell growth inhibition assay; assay type: cell-based; conditions: Homo sapiens, MDA-MB-361, MDA-MB-361, breast, HER2+, PIK3CA E545K; single agent; read-out: IC50 Single Agent (mean +/- std)
Method: as §1, §2, §3

HPAC tumor xenografts = experiment: Growth of human pancreatic tumor xenografts in SCID mice; assay type: in vivo; conditions: for % Tumor Growth Inhibition: QD; for tumor growth inhibition: HPAC
Method: (§4) Female SCID mice were implanted subcutaneously with HPAC or Capan2 tumor cells (human pancreatic carcinoma harboring mutant KRAS gene). When the tumor volume reached ˜150 mm^3, mice were block randomized to different treatment groups (n=8 mice/group). Mice received AKT inhibitor, Compound B, at 10 or 30 mg/kg, once daily (QD). MEK inhibitor, Compound A, was administered at 0.1, 0.3 and 1.0 mg/kg, once daily (QD) alone or at 0.1 and 0.3 mg/kg once daily in combination with AKT inhibitor. Mice were weighed and tumors measured by calipers twice weekly. Treatment was continued till the tumor volume reached >1000 mm^3. Tumor volumes were calculated using the formula: tumor volume=(Length×Width^2)/2. The percentage of tumor growth inhibition was calculated on each day of tumor measurement using the formula: 100×[1−(average growth of the compound-treated tumors/average growth of vehicle-treated control tumors)]. Data is plotted as mean±sem for tumor volume for each group.

Capan2 tumor xenografts = experiment: as above; assay type: in vivo; conditions: for % Tumor Growth Inhibition: Capan2-D01, QD, Treatment Duration 56; for tumor growth inhibition: Capan2
Method: as §4

Calu-3 = experiment: Cell growth inhibition assay; assay type: cell-based; conditions: Homo sapiens, Calu-3, Calu-3, lung, HER2+, WT; single agent; read-out: IC50 Single Agent (mean +/- std)
Method: as §1, §2, §3

SUM149PT = experiment: Cell growth inhibition assay; assay type: cell-based; conditions: Homo sapiens, breast, PTEN low, single agent, read-out: IC50 Single Agent (mean +/- std)
Method: as §1, §2, §3

HN5 = experiment: Cell growth inhibition assay; assay type: cell-based; conditions: Homo sapiens, HN5, HN5, H&N, EGFR+, WT; single agent; read-out: IC50 Single Agent (mean +/- std)
Method: as §1, §2, §3

CHL-1 = experiment: Cell growth inhibition assay; assay type: cell-based; conditions: Homo sapiens, CHL-1, CHL-1, melanoma, WT; single agent; read-out: IC50 Single Agent (mean +/- std)
Method: as §1, §2, §3

CC(=O)Nc1cccc(-n2c(=O)n(C3CC3)c(=O)c3c(Nc4ccc(I)cc4F)n(C)c(=O)c(C)c32)c1 [Compound A, N-{3-[3-cyclopropyl-5-(2-fluoro-4-iodo-phenylamino)-6,8-dimethyl-2,4,7-trioxo-3,4,6,7-tetrahydro-2H-pyrido[4,3-d]pyrimidin-1-yl]phenyl}acetamide]
IC50 (UACC893): > 1 µM | IC50 (SUM52PE): > 1 µM | IC50 (MDA-MB-453): > 1 µM | IC50 (SUM190PT): > 1 µM | IC50 (KPL-4): > 1 µM | IC50 (MDA-MB-361): > 1 µM | % Tumor Growth Inhibition (HPAC tumor xenografts; HPAC-D01, Compound A 0.1 mg/kg po, Treatment Duration 75): 38% | % Tumor Growth Inhibition (HPAC tumor xenografts; HPAC-D01, Compound A 0.3 mg/kg po, Treatment Duration 75): 60% | % Tumor Growth Inhibition (HPAC tumor xenografts; HPAC-D01, Compound A 1 mg/kg po, Treatment Duration 75): 91% | % Tumor Growth Inhibition (HPAC tumor xenografts; HPAC-D02, Compound A 0.1 mg/kg po, Treatment Duration 74): 41% | % Tumor Growth Inhibition (HPAC tumor xenografts; HPAC-D02, Compound A 0.3 mg/kg po, Treatment Duration 74): 65% | % Tumor Growth Inhibition (HPAC tumor xenografts; HPAC-D02, Compound A 1 mg/kg po, Treatment Duration 74): 89% | tumor growth inhibition (HPAC tumor xenografts; 0.1 mg/kg QD): ~40% | tumor growth inhibition (HPAC tumor xenografts; 0.3 mg/kg QD): ~60% | tumor growth inhibition (HPAC tumor xenografts; 1 mg/kg QD): ~90% | % Tumor Growth Inhibition (Capan2 tumor xenografts; Compound A 0.1 mg/kg po): 74% | % Tumor Growth Inhibition (Capan2 tumor xenografts; Compound A 0.3 mg/kg po): 90% | % Tumor Growth Inhibition (Capan2 tumor xenografts; Compound A 1 mg/kg po): 104% | tumor growth inhibition (Capan2 tumor xenografts; 0.1 mg/kg): 70% | tumor growth inhibition (Capan2 tumor xenografts; 0.3 mg/kg): 87% | tumor growth inhibition (Capan2 tumor xenografts; 1.0 mg/kg): 104%

Cn1ncc(Cl)c1-c1cc(C(=O)N[C@H](CN)Cc2ccc(F)c(F)c2)oc1Cl [Compound B, N-{(1S)-2-amino-1-[(3,4-difluorophenyl)methyl]ethyl}-5-chloro-4-(4-chloro-1-methyl-1H-pyrazol-5-yl)-2-furancarboxamide]
IC50 (Calu-3): > 1 µM | IC50 (SUM149PT): > 1 µM | IC50 (HN5): > 1 µM | IC50 (CHL-1): > 1 µM | % Tumor Growth Inhibition (HPAC tumor xenografts; HPAC-D01, Compound B 10 mg/kg po, Treatment Duration 75): 11% | % Tumor Growth Inhibition (HPAC tumor xenografts; HPAC-D01, Compound B 30 mg/kg po, Treatment Duration 75): 40% | % Tumor Growth Inhibition (HPAC tumor xenografts; HPAC-D02, Compound B 10 mg/kg po, Treatment Duration 74): 15% | % Tumor Growth Inhibition (HPAC tumor xenografts; HPAC-D02, Compound B 30 mg/kg po, Treatment Duration 74): 31% | tumor growth inhibition (HPAC tumor xenografts; 10 mg/kg QD, two independent studies): 11-15% | tumor growth inhibition (HPAC tumor xenografts; 30 mg/kg QD, two independent studies): 31-40% | % Tumor Growth Inhibition (Capan2 tumor xenografts; Compound B 10 mg/kg po): 22% | % Tumor Growth Inhibition (Capan2 tumor xenografts; Compound B 30 mg/kg po): 26% | tumor growth inhibition (Capan2 tumor xenografts; at both 10 and 30 mg/kg doses): 27-30%
